Among the data in PMC2940876, “Familial hemiplegic migraine CaV2.1 channel mutation R192Q enhances ATP-gated P2X3 receptor activity of mouse sensory ganglion neurons mediating trigeminal pain” (2010) are EC50 values, retold here.

As usually defined, the EC50 is the concentration giving half of the maximal effect. A higher EC50 goes with a need for much substance.

The assay addresses T1, P2X3 receptor (Mus musculus, UniProt Q3UR32).
T1 construct: gene P2rx3; native receptor in cultured mouse trigeminal ganglion neurons (WT)
T1 sequence (Q3UR32 1-397): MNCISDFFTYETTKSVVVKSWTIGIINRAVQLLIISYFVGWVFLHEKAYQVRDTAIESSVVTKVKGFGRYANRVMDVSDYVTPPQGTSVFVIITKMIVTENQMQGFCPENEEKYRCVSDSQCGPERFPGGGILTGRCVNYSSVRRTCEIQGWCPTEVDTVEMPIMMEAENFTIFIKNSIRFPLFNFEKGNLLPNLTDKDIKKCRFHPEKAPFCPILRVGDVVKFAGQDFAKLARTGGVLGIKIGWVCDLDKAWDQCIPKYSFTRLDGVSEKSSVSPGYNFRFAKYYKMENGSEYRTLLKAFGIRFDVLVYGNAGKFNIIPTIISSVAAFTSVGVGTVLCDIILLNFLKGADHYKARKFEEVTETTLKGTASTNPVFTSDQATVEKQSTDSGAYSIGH
Kind of assay: whole-cell patch clamp, agonist concentration-response on native neurons. The format is cell-based. On the technique in general: In patch-clamp work, channel activity is measured electrically.

The compound `Nc1ncnc2c1ncn2[C@@H]1O[C@H](COP(=O)(O)CP(=O)(O)OP(=O)(O)O)[C@@H](O)[C@H]1O` [α,β-meATP] displayed an EC50 of 6.9 ± 1.1 µM.
